For assay [1], the system named is T cells co-cultured with BMDM. Nature of the assay: T cells co-cultured with bone marrow-derived macrophages (BMDM) polarized to M2. The conditions noted are these: for proliferation of T cells (CFSE dilution): macrophages differentiated in NM. The format is cell-based, mouse. The method, then: In vitro bone marrow-derived macrophage differentiation. For this purpose, bone marrow cells were aseptically collected from 8-10 weeks old female C57BL/6J mice by crushing the femurs and tibias in PBS, […] and 2 mM EDTA. Cells were added to ACK buffer to lyse the red blood cells for 2 mins with intermediate vortexing. The solution was filtered through a 40 μm strainer to remove bone fragments. To differentiate bone marrow cells to macrophages the cells were plated in DMEM media (100%) or DMEM media (70%) and 30% tumor-conditioned media, supplemented with 10% heat-inactivated charcoal-stripped serum in the presence of 30 ng/mL MCSF (Cat #312-02, PeproTech). After 3 days cells were supplemented with 50% of respective fresh media. On day 6 the media was removed and replaced with fresh media. […] For polarization, cells were further treated with LIPS (100 ng/mL, Cat L2630, Sigma Aldrich) and IFNγ (20 ng/mL, Cat #315-05, PeproTech) (24 hr) for M1 polarization or IL4 (10 ng/mL, cat #214-14, PeproTech) for M2 polarization.
T cell proliferation assay and staining. CD3+ T cells were isolated from the spleens of C57BL/6J or P-mel mice with magnetic bead-based T cell isolation kit (Cat #19851, StemCell Technologies). T cells from naïve mice were stained with 5 μM CFSE (Cat #C34554, ThermoFisher Scientific) for 5 minutes in PBS+5% CFS with rapid vortexing following which the cells were washed twice with PBS. Stained T cells were then counted and plated in 96-well plates coated with anti-CD3 antibody (0.5 μg/mL, Cat #19851, ThermoFisher Scientific) anti-CD28 antibody (1 μg/mL, Cat #16-0281-86, Thermo Fisher Scientific) at desired density (250,000 T cells/50,000 CD11b or BMDM) in the presence of IL2 (50 ng/mL) (Cat #212-12, PeproTech). 72 hr after plating the cells were incubated with protein transport inhibitors brefeldin (Cat #00-4506-51, Thermo Fisher Scientific) and monensin (Cat #00-4505-51, Thermo Fisher Scientific) for 6 hr at a final concentration of 2 μM monensin and 3 μg/mL brefeldin after which they were collected and were processed for staining for flow cytometry.
Of note, no changes in the percentage of Ly6C+/Ly6G+ MDSCs in tumors between the two treatment conditions were observed (FIG. 10D). […] The addition of tumor conditioned media allows the TME to be partially mimicked where tumor derived factors influence the differentiation and polarization of macrophages. […] The polarized macrophages were subsequently co-cultured with sub-optimally activated T cells (CD3/CD28 and IL2) isolated from spleens of non-tumor bearing mice, for 72 hr following which they were treated with protein transport inhibitors (monensin and brefeldin) for 6 hr to prevent release of cytokines and chemokines.

Another assay relates to BPD6 tumors. Nature of the assay: BPD6 syngeneic melanoma tumor model in ovariectomized mice (tumor growth, flow cytometry). The assay is classed as in vivo, mouse. From the text: FIGS. 18E-18G show quantification of M1 macrophages (MHCII^hi CD206^−ive), GZMB^+CD8^+ T cells, and PD1^+CD8^+ T cells in YuMM5.2 tumors from FIG. 18C (n=4). […] Vehicle+IgG (n=10, red), fulvestrant+IgG (n=15, blue), vehicle+ICB (n=15, black), and fulvestrant+ICB (n=15, brown). Black arrow indicates start of ICB treatment regimen. […] Vehicle+IgG (n=9, red), fulvestrant+IgG (n=8, blue), vehicle+ICB (n=9, black), and fulvestrant+ICB (n=10, brown). Black arrow indicates start of anti-PD1 treatment regimen. […] FIGS. 18A-18C are representative of two individual experiments. Data are expressed as mean 3 S.E.M. Significance was calculated by one-way ANOVA followed by Bonferroni's multiple correction (FIG. 18K), by Student's t test (FIG. 18L), and by log rank test (FIG. 18M) (*p<0.05, **p<0.01, and ***p<0.001).
Tumor models and cells. The mouse B16F10 and Yumm5.2 cell lines were purchased from American Type Culture Collection (ATCC, Manassas, VA). The mouse melanoma cell line BPD6 was established from iBP as described elsewhere (Zhao et al., Immunity 2018, 48, 147-160). B16F10 and BPD6 cells were maintained in Dulbecco's Modified Eagle's Medium (DMEM) supplemented with 8% fetal bovine serum (FBS), 0.1 mM non-essential amino acids (NEAA) and 1 mM sodium pyruvate. YuMM5.2 cells were maintained in DMEM/F12 media supplemented with 10% FBS. The cells were replated 3 times/week at a confluency of 1:10 and were kept in a 37° C. incubator at 5% CO2. For subcutaneous tumor models B16F10 (5×10^4 or 1×10^5), YuMM5.2 (5×10^5), and BPD6 (5×10^5) cells were injected into the right flank of the mice. For iBP mice, tumors were induced with a single intradermal dose of 4-hydroxytamoxifen in DMSO (150 μg/mouse). Tumors were measured thrice weekly using an electronic caliper. Tumor volumes were calculated by the formula V=L×(W×W)/2. For iBP mouse tumors, volumes were calculated by the formula V=L×B×H. For tumor growth rate studies mice were euthanized when the tumors reached a maximum size of 2000 mm^3.
Ovarlectomy and subcutaneous pellet Insertion. Ovariectomy was performed as previously described (Nelson et al., Science 2013, 342, 1094-1098). Eight days prior to tumor inoculation, 7 weeks old C57BL/6J or 5 weeks old (iBP) female mice were subjected to ovariectomy or sham surgery. Mice were anesthetized in an inhalation chamber (2% Isoflurane) and maintained in half the dose of isoflurane (1%) via nose cone throughout the surgical process. Prior to surgery, mice were administered a 5 mg/kg dose of carprofen subcutaneously. The area below the ribs was shaved with an electronic razor and the skin was sterilized by rubbing with betadine and alcohol (3× alternating). A horizontal incision was made through the skin above the ovary fat pad, followed by a vertical incision through the abdominal muscle wall. The ovary was externalized and removed using a cauterizing scissors (or returned if sham). Fat pad was replaced, and muscle walls were opposed and sutured (1-2 stitches). Following suturing, 1 drop of bupivacaine (0.25%) was added on top of the incision site. The skin was opposed, and a wound clip was placed on the incision site. This was repeated for the other ovary. The mouse was then removed from anesthesia and kept in a clean cage and monitored until conscious. The mice were monitored for recovery for 10 days.
Fulvestrant treatment Mice were injected with fulvestrant (Cat #HY-13636 MedChemExpress) 2 days after tumor injection at a dose of 25 mg/kg via intramuscular route. […]

As for 17β-estradiol [E2], the “proliferation of T cells (CFSE)” value in assay [1] (BMDM from Esr1^f/f and Esr1^f/f, LysMCre differentiated in NM, DMSO or E2) is reported as “No difference”. The “T cell proliferation (CFSE dilution)” value in assay [1] (macrophages differentiated in 30% TCM and E2) is recorded as “effectively suppressed”. In assay [1] (E2), the “proliferation of T cells (CFSE dilution)” value is recorded as “not affected”. Moreover, the “expression of GZMB and IFNγ in T cells” value in assay [1] (macrophages differentiated in TCM, E2 1 nM vs DMSO) is recorded as “decreased expression”. The “expression of IFNγ and GZMB in T cells” value in assay [1] (macrophages in normal media (NM), E2 1 nM) is listed as “did not display any change”. The tumor growth entry in the assay on BPD6 tumors (E2 vs placebo, ovariectomized C57BL/6J) is recorded as “significantly increased”. The “percentage of Ly6C+/Ly6G+ MDSCs in tumors” value in the assay on BPD6 tumors (flow cytometry, E2 vs placebo) is “no changes”.

Consider `C[C@]12CC[C@@H]3c4ccc(O)cc4C[C@@H](CCCCCCCCC[S+]([O-])CCCC(F)(F)C(F)(F)F)[C@H]3[C@@H]1CC[C@@H]2O` (stereo partly drawn) [fulvestrant], for which the “E2-induced suppression of T cell proliferation” value in assay [1] (macrophages differentiated in 30% TCM, E2 (1 nM)+fulvestrant (100 nM)) was “reversed”. Also, in assay [1] (E2+fulvestrant), the “proliferation of T cells (CFSE dilution)” value is “not affected”. For the same compound, the “intratumoral M1/M2 ratio” value in the assay on BPD6 tumors (E2 treated mice co-treated with fulvestrant) is recorded as “increase”. In addition, the tumor growth result in the assay with BPD6 tumors (PD1 sensitive model, fulvestrant alone) is “slows tumor growth”; in the assay with BPD6 tumors (fulvestrant 25 mg/kg, E2 supplemented mice), “significantly reduced”.

The values are drawn from patent publication US20240398831A1, “COMPOSITIONS COMPRISING SMALL MOLECULE REGULATORS OF TUMOR IMMUNITY AND METHODS OF USING SAME” (Duke University, priority 2021, published 2024).
